Laboratory results taken from US4775692A, “2,5,6,7-tetranor-4,8-inter-m-phenylene PGI2 derivatives” (Toray Industries, Inc., priority 1986, dated 1988).
≈ marks a conversion by molar mass, not a printed value. Read-outs that look alike come from different tables or passages of the source.

What was measured:
[1] = system: platelet aggregation; experiment: Inhibiting effect of platelet aggregation (ADP-induced, human platelet-rich plasma); format: cell-based; details: human PRP, compound added one minute before ADP
Experimental: Inhibiting effect of platelet aggregation
The blood taken from a human median cubital vein was centrifuged at 800 rpm for 10 min. and a supernatant thereof was used as a platelet-rich plasma (PRP). An aliquot of PRP thus obtained was put into a small tube, to which […] (ADP) was added to induce platelet aggregation. The extent of aggregation was determined by detecting a change in turbidity of the aliquot by an apparatus for measuring platelet aggregation (Rika-Denki, Tokyo). The compound was added one minute before the addition of ADP. The concentration of the compound which may reduce the platelet aggregation, 50% of the control was designated as IC50.

[2] = system: gastric acid secretion; experiment: Inhibiting effect of gastric acid secretion, perfused stomach, pentagastrin-stimulated (Ghosh & Schild); format: in vivo, male SD rat; details: urethane-anesthetized SD rat, pentagastrin 0.05 μg/kg/min, injected through femoral vein; ratio of area index to that of PGE2
Experimental: (§1) Inhibiting effect of gastric acid secretion
A male SD rat was incised in the abdomen under anesthesia by urethane and the lumen of a stomach was perfused with a physiolosical saline solution through a double-cannula inserted into a lumen of the stomach. A pH of a draining gastric acid was monitored using a pH-meter (M. Ghosh, H. Schild, Br. J. Pharmacol. 13, 54 (1958)). The secretion of gastric acid was stimulated by a continuous infusion of the pentagastrin at a rate of 0.05 μg/kg/min. When the pH of gastric acid became stable value of about 4, the compound was injected through a femoral vein. As an index of the inhibiting effect of gastric acid secretion by the compound was calculated from the area surrounded by the curve drawn by the time course of the pH of gastric acid, from the point increase by the injection of the compound and to the point it came back to baseline. The index thus obtained was compared to that of PGE2 and a ratio therebetween was shown in Table 3, as a relative effect of the compound.

[3] = system: blood pressure of the carotid; experiment: Hypotensive effect (carotid blood pressure, anesthetized rat); format: in vivo; details: chloralose-anesthetized Wistar male rat, injected via catheter connected to femoral artery; read-out: Hypotensive effect ED25 (dose reducing blood pressure by 25 mmHg)
Experimental: A catheter was inserted to a carotid of the Wistar male rat under chloralose anesthesia. Another end of the catheter was connected to a polygraph with a pressure-transducer to detect a blood pressure of the carotid. The compound was injected via catheter connected to a femoral artery. The dose of the compound which may reduce the blood pressure in an amount of 25 mmHg was designated as ED25.

[4] = system: gastric acid secretion; experiment: Inhibiting effect of gastric acid secretion, pylorus-ligated rat (Shay); format: in vivo; details: pylorus ligation, injected into duodenum, 5 hours
Experimental: as §1
Under anesthesia by ether, the abdomen of the rat was incised in its median and a pylorus was ligated with silk thread according to Shay (Gastroenterology 5, 43 (1945)). Simultaneously, the compound was injected into a duodenum of the rat and then the incision was closed.
Five hours later, the median-incision of the abdomen was again performed and the esophargus was ligated and then the whole stomach was removed.
The stomach was cut along a greater curvature and the contents thereof was transferred into a graduated centrifuge tube. After centrifugation at 3,000 rpm for 10 min., a volume of a gastric juice was measured and a part of its supernatant was titrated to pH 7 with 0.1N NaOH using a pH-stat (Radio meter).
The mean dose of the compounds which may reduce the volume of gastric juice (ml) and acidity (mEq/ml) of a group of five animals to 50% of that of the controls were designated respectively as ED50.

[5] = system: corpus of stomach; experiment: Gastric cytoprotection effect (lesion length / ulcer index after oral 0.2N NaOH); format: in vivo; details: 1 h, 30 min before oral 0.2N NaOH, lesion measured one hour later, read-out: Gastric cytoprotection effect ED50 (dose reducing the sore to 50% of control)
Text: Gastric cytoprotection effect
Gastric cytoprotection effect was studied according to the method by A. Robert (Gastroenterology, 77(3), 443, (1979)). Thirty min. after oral administration of the compound according to the invention, 0.2N NaOH was orally applied to the animals.
One hour later, the animals were killed under anesthesia by chloroform. The stomach was removed and fixed in a solution of 5% formalin. After fixation, the stomach was cut along the greater curvature. A total length of the lesion appearing on the corpus of stomach was then measured and served as an ulcer index.
The dose of the compound which may reduce the sore to 50% of that of the control was designated as ED50.
The gastric cytoprotection effects of the compounds according to the invention, which is thus represented by ED50, are summarized in Table 1.

[6] = acidity (mEq/ml) to 50% of controls, read-out: Inhibiting effect of gastric acid secretion ED50, Acidity
[7] = volume (ml) to 50% of controls, read-out: Inhibiting effect of gastric acid secretion ED50, Volume of the gastric juice

IC50 [1] [ng/mL]	SMILES	Inhibiting effect of gastric acid secretion, Relative effect (PGE2 = 1) [2]	ED (25 mmHg) [3] [µg/kg]	ED50 [4, 6] [µg/kg]	ED50 [4, 7] [µg/kg]	ED50 [5] [µg/kg]
0.41 (≈ 1.05 nM)	CCCCCC[C@H](O)/C=C/[C@@H]1[C@H]2c3cccc(OCC(=O)O)c3O[C@H]2C[C@H]1O (relative stereo) [Compound 160, 20a-Homo-2,5,6,7-tetranor-4-oxa-4,8-inter-m-phenylene PGI2]	13	0.23	450	97	–
1.35 (≈ 3.87 nM)	CC(C)[C@H](O)/C=C/[C@@H]1[C@H]2c3cccc(OCC(=O)O)c3O[C@H]2C[C@H]1O (relative stereo) [Compound 164, 16-Methyl-2,5,6,7,18,19,20-heptanor-4-oxa-4,8-inter-m-phenylene PGI2]	12	–	890	1340	9.6
1.54 (≈ 4.25 nM)	CC(C)(C)[C@H](O)/C=C/[C@@H]1[C@H]2c3cccc(OCC(=O)O)c3O[C@H]2C[C@H]1O (relative stereo) [Compound 168, 16,16-Dimethyl-2,5,6,7,18,19,20-heptanor-4-oxa-4,8-inter-m-phenylene PGI2]	3.5	0.49	–	–	30.5
2.1 (≈ 5.58 nM)	CCC(C)(C)[C@H](O)/C=C/[C@@H]1[C@H]2c3cccc(OCC(=O)O)c3O[C@H]2C[C@H]1O (relative stereo) [Compound 172, 16,16-Dimethyl-2,5,6,7,19,20-hexanor-4-oxa-4,8-inter-m-phenylene PGI2]	19	0.72	–	–	4.6
–	CCCC(C)(C)[C@H](O)/C=C/[C@@H]1[C@H]2c3cccc(OCC(=O)O)c3O[C@H]2C[C@H]1O (relative stereo) [Compound 176, 16,16-Dimethyl-2,5,6,7,20-pentanor-4-oxa-4,8-inter-m-phenylene PGI2]	48	0.69	–	–	4.1
–	CCCCC(C)(C)[C@H](O)/C=C/[C@@H]1[C@H]2c3cccc(OCC(=O)O)c3O[C@H]2C[C@H]1O (relative stereo) [Compound 180, 16,16-Dimethyl-2,5,6,7-tetranor-4-oxa-4,8-inter-m-phenylene PGI2]	72	0.69	1780	510	2.9
24 (≈ 57.3 nM)	CCCCCC(C)(C)[C@H](O)/C=C/[C@@H]1[C@H]2c3cccc(OCC(=O)O)c3O[C@H]2C[C@H]1O (relative stereo) [Compound 184, 16,16-Dimethyl-20a-homo-2,5,6,7-tetranor-4-oxa-4,8-inter-m-phenylene PGI2]	85	0.5	–	–	2.3
–	CC(C)C(C)(C)[C@H](O)/C=C/[C@@H]1[C@H]2c3cccc(OCC(=O)O)c3O[C@H]2C[C@H]1O (relative stereo) [Compound 196, 16,16,17-Trimethyl-2,5,6,7,19,20-hexanor-4-oxa-4,8 inter-m-phenylene PGI2]	–	–	–	–	150
–	CC(C)(C1CCCCC1)[C@H](O)/C=C/[C@@H]1[C@H]2c3cccc(OCC(=O)O)c3O[C@H]2C[C@H]1O (relative stereo) [Compound 248, 16-cyclohexyl-16-methyl-2,5,6,7,18,19,20-heptanor-4-oxa-4,8-inter-m-phenylene PGI2]	13	11	–	–	31.1
–	CC(C)(CC1CCCCC1)[C@H](O)/C=C/[C@@H]1[C@H]2c3cccc(OCC(=O)O)c3O[C@H]2C[C@H]1O (relative stereo) [Compound 252, 17-cyclohexyl-16,16-dimethyl-2,5,6,7,18,19,20-heptanor-4-oxa-4,8-inter-m-phenylene PGI2]	13	5.6	–	–	6.5
–	CC(C)(c1ccccc1)[C@H](O)/C=C/[C@@H]1[C@H]2c3cccc(OCC(=O)O)c3O[C@H]2C[C@H]1O (relative stereo) [Compound 293, 16-methyl-16-phenyl-2,5,6,7,18,19,20-heptanor-4-oxa-4,8-inter-m-phenylene PGI2]	4.8	46	–	–	–
13 (≈ 29.6 nM)	CC(C)(Cc1ccccc1)[C@H](O)/C=C/[C@@H]1[C@H]2c3cccc(OCC(=O)O)c3O[C@H]2C[C@H]1O (relative stereo) [Compound 297, 16,16-dimethyl-17-phenyl-2,5,6,7,18,19,20-heptanor-4-oxa-4,8-inter-m-phenylene PGI2]	75	0.34	–	–	–
–	COCC(C)(C)[C@H](O)/C=C/[C@@H]1[C@H]2c3cccc(OCC(=O)O)c3O[C@H]2C[C@H]1O (relative stereo) [Compound 301, 16,16-Dimethyl-2,5,6,7,20-pentanor-4,18-dioxa-4,8-inter-m-phenylene PGI2]	16	0.36	–	–	38.5
–	O=C(O)COc1cccc2c1O[C@H]1C[C@@H](O)[C@H](/C=C/[C@@H](O)COc3ccccc3)[C@@H]21 (relative stereo) [Compound 313, 16-Phenoxy-2,5,6,7,17,18,19,20-octanor-4-oxa-4,8-inter-m-phenylene PGI2]	53	2.1	310	420	21.1
–	CC(C)(Oc1ccccc1)[C@H](O)/C=C/[C@@H]1[C@H]2c3cccc(OCC(=O)O)c3O[C@H]2C[C@H]1O (relative stereo) [Compound 317, 16-Methyl-16-phenoxy-2,5,6,7,18,19,20-heptanor-4-oxa-4,8-inter-m-phenylene PGI2]	62	1.3	–	–	0.49
–	CC(C)(Oc1ccccc1)[C@H](O)/C=C/[C@@H]1[C@H]2c3cccc(C#CC(=O)O)c3O[C@H]2C[C@H]1O (relative stereo) [Compound 371, 16-Methyl-16-phenoxy-2,5,6,7,18,19,20-heptanor-3,3,4,4-tetradehydro-4,8-inter-m-phenylene PGI2]	8	2.4	4600	> 10000	27.9
0.075 (≈ 0.192 nM)	CCC[C@H](C)C[C@H](O)/C=C/[C@@H]1[C@H]2c3cccc(OCC(=O)O)c3O[C@H]2C[C@H]1O [Compound 213, 17-(S)-Methyl-2,5,6,7-tetranor-4-oxa-4,8-inter-m-phenylene PGI2]	41	0.023	230	87	–
0.18 (≈ 0.445 nM)	CCCC[C@H](C)C[C@H](O)/C=C/[C@@H]1[C@H]2c3cccc(OCC(=O)O)c3O[C@H]2C[C@H]1O [Compound 218, (17S)-17-Methyl-20a-homo-2,5,6,7-tetranor-4-oxa-4,8-inter-m-phenylene PGI2]	–	0.045	–	–	0.27
–	CCCCC[C@H](O)/C=C/[C@H]1[C@H](O)CC(=O)[C@@H]1C/C=C\CCCC(=O)O [PGE2, reference compound]	1	–	–	–	–
